According to patent publication US20200216818A1 (priority 2013, published 2020):

Key:
Assay in all cases: MTS viability assay, ZD2767P prodrug, untransduced vs VV-CPG2-transduced cells
[1] = system: SW620 cells; type: cell-based; settings: SW620 cells transduced with VV-CPG2 at MOI 0.1 vs untransduced
[2] = system: FaDu cells; type: cell-based, human; settings: FaDu cells transduced with VV-CPG2 at MOI 0.1 vs untransduced
[3] = system: WM226.4 cells; type: cell-based; settings: WM226.4 cells transduced with VV-CPG2 at MOI 0.1 vs untransduced

O=C(O)CC[C@H](NC(=O)Oc1ccc(N(CCI)CCI)cc1)C(=O)O [ZD2767P, N-(4-[bis(2-iodoethyl)amino]phenoxycarbonyl)-L-glutamic acid]
reduction of the EC50 of ZD2767P [1]: 119 fold
reduction of the EC50 of ZD2767P [2]: 103 fold
reduction of the EC50 of ZD2767P [3]: 114 fold
